Data on 36 molecules can be found in ChEMBL document CHEMBL4483862, “Open-source discovery of chemical leads for next-generation chemoprotective antimalarials” (2018).

Structures are written as SMILES.

The test system of the assay is Plasmodium berghei. Briefly: Luciferase/luciferin-expressing antifolate-resistant parasites were used to infect a culture of HepG2 cells that were pre-incubated with compounds. Infected hepatocytes emit light due to the luciferase reaction. Assay results are presented as the percent inhibition of light emission compared to control. […]. The format is functional. The settings on record: sporozoite; for IC90: read-out: LUCIFERASE INFECTION ASSAY - IC90.

Broadly, the IC50 is the point on the concentration scale where inhibition reaches its midpoint. In general, IC90 refers to the concentration at which the effect reaches the 90% level.

With `CC(C)(C)c1ccc(-c2cnc3cnc(-c4ccc(N)nc4)cn23)cc1`, the IC90 is 4.41 µM. In addition, the IC50 (PBLUC_HILL_SLOPE 8.01, PBLUC_R_SQUARED 0.801, read-out: LUCIFERASE INFECTION ASSAY - IC50) is 3.35 µM.
As to `CN(C)C(=O)c1ccc(-c2cnc3cnc(-c4ccccc4Oc4ccccc4)cn23)cc1`, the IC90 is 3.65 µM. Where the note is “PBLUC_HILL_SLOPE 8.03, PBLUC_R_SQUARED 0.291, read-out: LUCIFERASE INFECTION ASSAY - IC50”, the IC50 was 2.77 µM.
In the case of `CS(=O)(=O)Nc1cccc(-c2cnc3ccc(Cc4ccc(F)cc4)nn23)c1`, the IC90 is 5.12 µM. Further, the IC50 (PBLUC_HILL_SLOPE 7.81, PBLUC_R_SQUARED 0.241, read-out: LUCIFERASE INFECTION ASSAY - IC50) turned out to be 3.87 µM.
For `CCOC(=O)c1[nH]c(CN2CCN(c3ccccc3)CC2)c(C(=O)OCC)c1C`, the IC90 is more than 10 µM. Further, the IC50 (PBLUC_HILL_SLOPE 7.85, PBLUC_R_SQUARED 0.611, read-out: LUCIFERASE INFECTION ASSAY - IC50) stood at 8.25 µM.
`CSc1sc(NC(=O)Nc2ccc(Cl)cc2)cc1S(=O)(=O)C(C)C`: the IC90 was more than 8.15 µM. Also, under “PBLUC_HILL_SLOPE 7.91, PBLUC_R_SQUARED 0.357, read-out: LUCIFERASE INFECTION ASSAY - IC50”, the IC50 was found to be 6.79 µM.
For `O=C(Nc1nc(-c2c[nH]c3ccccc23)cs1)c1cc(=O)[nH]c2ccccc12`, the IC90 was more than 10 µM. For the same molecule, the IC50 (PBLUC_HILL_SLOPE 7.71, PBLUC_R_SQUARED 0.559, read-out: LUCIFERASE INFECTION ASSAY - IC50) stood at 9.23 µM.
As to `C(=N\c1ccccc1-n1cccc1)/c1cnc(-c2ccccc2)[nH]1`, the IC90 was more than 10.6 µM. Also, for the setting “PBLUC_HILL_SLOPE 8.03, PBLUC_R_SQUARED 0.709, read-out: LUCIFERASE INFECTION ASSAY - IC50”, the IC50 was more than 10.6 µM.
For `C=CCN(CC=C)C(CNc1ccc2nnc(C(F)(F)F)n2n1)C(C)C` (configuration not stated), the IC90 is more than 10 µM. The IC50 (PBLUC_HILL_SLOPE 8.1, PBLUC_R_SQUARED 0.171, read-out: LUCIFERASE INFECTION ASSAY - IC50) amounted to 8.34 µM.
As to `CN(C)C(=O)Oc1ccc2c(-c3ccccc3)cc(=O)oc2c1`, the IC90 is more than 10.7 µM. In addition, where the note is “PBLUC_HILL_SLOPE 7.62, PBLUC_R_SQUARED 0.0613, read-out: LUCIFERASE INFECTION ASSAY - IC50”, the IC50 was more than 10.7 µM.
For `NC(=O)C1CCN(c2cc(-c3nc4ccccc4s3)c3ccccc3n2)CC1`, the IC90 is more than 10 µM. In addition, where the note is “PBLUC_HILL_SLOPE 7.92, PBLUC_R_SQUARED 0.452, read-out: LUCIFERASE INFECTION ASSAY - IC50”, the IC50 was 8.36 µM.
`O=C(NCCOc1ccc2ccccc2c1)c1ccccc1O`: the IC90 was more than 10 µM. For the same molecule, the IC50 (PBLUC_HILL_SLOPE 7.72, PBLUC_R_SQUARED 0.601, read-out: LUCIFERASE INFECTION ASSAY - IC50) was found to be 9.34 µM.
For `Cc1ccc(C(=O)OC(C)C(=O)N2CCCC2)cc1S(=O)(=O)N1CCCCC1` (configuration not stated), the IC90 was 1.37 µM. The IC50 (PBLUC_HILL_SLOPE 7.98, PBLUC_R_SQUARED 0.937, read-out: LUCIFERASE INFECTION ASSAY - IC50) was 1.04 µM.
On to `Cc1nn(-c2ccccc2)c(C)c1C(=O)ONC(=N)c1cccc(Cl)c1`, for which the IC90 is more than 8.95 µM. Besides, the IC50 (PBLUC_HILL_SLOPE 7.89, PBLUC_R_SQUARED 0.243, read-out: LUCIFERASE INFECTION ASSAY - IC50) is 7.68 µM.
In the case of `O=C(CSc1ccccc1)Nc1nc2ccccn2c1C(=O)NC1CCCC1`, the IC90 is more than 8.37 µM. The IC50 (PBLUC_HILL_SLOPE 8.28, PBLUC_R_SQUARED 0.442, read-out: LUCIFERASE INFECTION ASSAY - IC50) is 7.37 µM.
Take `NNC(=S)c1cc(Cl)cc(Cl)c1`: the IC90 came out at 7.72 µM. In addition, the IC50 (PBLUC_HILL_SLOPE 7.79, PBLUC_R_SQUARED 0.6, read-out: LUCIFERASE INFECTION ASSAY - IC50) was 5.82 µM.
Take `Fc1ccc(-c2nc(CSc3nc(NC4CC4)c4ccccc4n3)cs2)cc1`: the IC90 was 4.9 µM. Also, the IC50 (PBLUC_HILL_SLOPE 8, PBLUC_R_SQUARED 0.651, read-out: LUCIFERASE INFECTION ASSAY - IC50) turned out to be 3.72 µM.
In the case of `Cc1sc2nc(-c3cccnc3)nc(N(C)Cc3cccnc3)c2c1C`, the IC90 came out at 9.64 µM. For the setting “PBLUC_HILL_SLOPE 7.84, PBLUC_R_SQUARED 0.586, read-out: LUCIFERASE INFECTION ASSAY - IC50”, the IC50 came to 7.28 µM.
On to `CCCCCCN(C(=O)COC(=O)c1c(C)[nH]c(C2CC2)nc1=O)c1nc(-c2ccccc2)cs1`, for which the IC90 was 4.6 µM. Also, the IC50 (PBLUC_HILL_SLOPE 8.31, PBLUC_R_SQUARED 0.597, read-out: LUCIFERASE INFECTION ASSAY - IC50) was 3.53 µM.
Take `CN(C)S(=O)(=O)c1ccc(SCC(=O)c2ccc(C(C)(C)C)cc2)nc1`: the IC90 is 5.05 µM. Moreover, under “PBLUC_HILL_SLOPE 8.24, PBLUC_R_SQUARED 0.558, read-out: LUCIFERASE INFECTION ASSAY - IC50”, the IC50 amounted to 3.87 µM.
Regarding `O=C(Nc1cccc(C(F)(F)F)c1)Nc1ccc2nc(-c3ccc(F)c(Cl)c3)nn2c1`, the IC90 was 5.2 µM. Also, for the setting “PBLUC_HILL_SLOPE 7.54, PBLUC_R_SQUARED 0.257, read-out: LUCIFERASE INFECTION ASSAY - IC50”, the IC50 was 3.88 µM.
As to `O=C(Cn1c(=O)oc2ccccc21)N1CCCC1c1nc2ccccc2s1` (configuration not stated), the IC90 was more than 10 µM. Moreover, the IC50 (PBLUC_HILL_SLOPE 7.81, PBLUC_R_SQUARED 0.364, read-out: LUCIFERASE INFECTION ASSAY - IC50) came out at 8.38 µM.
`CC(C)(NCC(=O)Nc1ccccc1C(N)=O)c1ccc2c(c1)OCO2`: the IC90 was more than 10 µM. In addition, the IC50 (PBLUC_HILL_SLOPE 7.96, PBLUC_R_SQUARED 0.17, read-out: LUCIFERASE INFECTION ASSAY - IC50) was more than 10 µM.
Regarding `COC(=O)c1cc(CNCC(O)COc2ccc(C(C)(C)CC(C)(C)C)cc2)ccc1OC` (configuration not stated), the IC90 was 4.63 µM. Besides, the IC50 (PBLUC_HILL_SLOPE 7.71, PBLUC_R_SQUARED 0.722, read-out: LUCIFERASE INFECTION ASSAY - IC50) is 3.48 µM.
For the molecule `COc1ccc(-c2cc([N+](=O)[O-])ccc2OCC(=O)NC(=O)NCCC(C)C)cc1`, the IC90 is more than 10 µM. Under “PBLUC_HILL_SLOPE 8.25, PBLUC_R_SQUARED 0.103, read-out: LUCIFERASE INFECTION ASSAY - IC50”, the IC50 was 9.42 µM.
With `Cc1ccc(NC(=O)Nc2ccc3nc(-c4ccsc4)nn3c2)cc1`, the IC90 was more than 10 µM. The IC50 (PBLUC_HILL_SLOPE 7.59, PBLUC_R_SQUARED 0.413, read-out: LUCIFERASE INFECTION ASSAY - IC50) amounted to 8.75 µM.
Turning to `CNc1nc2cnc(Nc3ccc(OC(F)(F)F)cc3)cc2n1-c1cccc(C(F)(F)F)c1`, the IC90 was more than 10 µM. Besides, the IC50 (PBLUC_HILL_SLOPE 7.78, PBLUC_R_SQUARED 0.568, read-out: LUCIFERASE INFECTION ASSAY - IC50) was 8 µM.
As for `CC(C)n1ncc2c(C(=O)N3CCN(CC(=O)N4CCCC4)CC3)cc(-c3ccccc3)nc21`, the IC90 came to 5.42 µM. Moreover, the IC50 (PBLUC_HILL_SLOPE 8.22, PBLUC_R_SQUARED 0.426, read-out: LUCIFERASE INFECTION ASSAY - IC50) came out at 4.15 µM.
For the molecule `CCOC(=O)c1c(-c2csc(Nc3ccccn3)n2)c(C)n(CC)c1C`, the IC90 was more than 10 µM. The IC50 (PBLUC_HILL_SLOPE 7.74, 2.96, PBLUC_R_SQUARED 0.584, 0.552, read-out: LUCIFERASE INFECTION ASSAY - IC50) was found to be 9.4 µM.
With `O=C(Nc1nc2c(-c3ccccc3)c(C(F)(F)F)sc2s1)c1ccc(Cl)cc1`, the IC90 is more than 7.52 µM. Further, the IC50 (PBLUC_HILL_SLOPE 7.81, PBLUC_R_SQUARED 0.676, read-out: LUCIFERASE INFECTION ASSAY - IC50) came out at 6.32 µM.
For `O=C(Nc1ccccc1-c1nc(=O)c2ccccc2[nH]1)C12CC3CC(CC(C3)C1)C2`, the 90% effect concentration (IC90) was more than 10 µM. Under “PBLUC_HILL_SLOPE 7.56, PBLUC_R_SQUARED 0.487, read-out: LUCIFERASE INFECTION ASSAY - IC50”, the IC50 was found to be 9.01 µM.
Regarding `COc1ccc(Br)cc1/C=C/C(=O)c1ccc(OCC#N)cc1`, the IC90 is more than 10 µM. Also, the IC50 (PBLUC_HILL_SLOPE 7.84, PBLUC_R_SQUARED 0.11, read-out: LUCIFERASE INFECTION ASSAY - IC50) stood at 9.52 µM.
Consider `COC(=O)c1ccc(NC(=O)c2ccc(-c3cccc(Br)c3)nc2C)s1`, for which the IC90 is more than 10 µM. Also, the IC50 (PBLUC_HILL_SLOPE 7.52, PBLUC_R_SQUARED 0.673, read-out: LUCIFERASE INFECTION ASSAY - IC50) is 9.09 µM.
Turning to `CC1(C)CC2CC(C)(CN2C(=O)CN2CCN(c3cccc(C(F)(F)F)c3)CC2)C1` (configuration not stated), the IC90 is more than 10 µM. In addition, the concentration for half-maximal inhibition (IC50) (PBLUC_HILL_SLOPE 7.96, PBLUC_R_SQUARED 0.534, read-out: LUCIFERASE INFECTION ASSAY - IC50) turned out to be 9.19 µM.
Regarding `CC(C)(C)c1ccc(-c2cnc3cnc(-c4cccnc4)cn23)cc1`, the IC90 came to 5.11 µM. In addition, under “PBLUC_HILL_SLOPE 7.55, PBLUC_R_SQUARED 0.755, read-out: LUCIFERASE INFECTION ASSAY - IC50”, the IC50 was found to be 3.82 µM.
On to `COc1ccc(-c2cnc3cnc(-c4cccc(C)c4C)cn23)cn1`, for which the IC90 is more than 9.99 µM. For the same molecule, the IC50 (PBLUC_HILL_SLOPE 7.63, PBLUC_R_SQUARED 0.171, read-out: LUCIFERASE INFECTION ASSAY - IC50) amounted to 8.65 µM.
For the molecule `Clc1ccc2c(NCc3ccccc3)ccnc2c1`, the IC90 was found to be 4.19 µM. Further, where the note is “PBLUC_HILL_SLOPE 8.08, PBLUC_R_SQUARED 0.339, read-out: LUCIFERASE INFECTION ASSAY - IC50”, the IC50 is 3.19 µM.
